Patent US20240399001A1, “RA[…] TH[…] TO FIBROBLAST ACTIVATION PROTEIN (FAP)” (BLUE EARTH D[…], priority 2021, published 2024)

Assays:
[1] = molecular target: T1, FAP (Homo sapiens, UniProt Q12884); experiment: In vitro FAP binding affinity, Grating-Coupled Interferometry (GCI), waveRAPID kinetics assay; settings: immobilized biotinylated FAP; 1×PBS pH 7.4, 1 mM DTT, 0.005% Tween, 2% DMSO; non-radiolabelled compounds
T1 construct: biotin (biotinylated)
T1 sequence (Q12884 1-760): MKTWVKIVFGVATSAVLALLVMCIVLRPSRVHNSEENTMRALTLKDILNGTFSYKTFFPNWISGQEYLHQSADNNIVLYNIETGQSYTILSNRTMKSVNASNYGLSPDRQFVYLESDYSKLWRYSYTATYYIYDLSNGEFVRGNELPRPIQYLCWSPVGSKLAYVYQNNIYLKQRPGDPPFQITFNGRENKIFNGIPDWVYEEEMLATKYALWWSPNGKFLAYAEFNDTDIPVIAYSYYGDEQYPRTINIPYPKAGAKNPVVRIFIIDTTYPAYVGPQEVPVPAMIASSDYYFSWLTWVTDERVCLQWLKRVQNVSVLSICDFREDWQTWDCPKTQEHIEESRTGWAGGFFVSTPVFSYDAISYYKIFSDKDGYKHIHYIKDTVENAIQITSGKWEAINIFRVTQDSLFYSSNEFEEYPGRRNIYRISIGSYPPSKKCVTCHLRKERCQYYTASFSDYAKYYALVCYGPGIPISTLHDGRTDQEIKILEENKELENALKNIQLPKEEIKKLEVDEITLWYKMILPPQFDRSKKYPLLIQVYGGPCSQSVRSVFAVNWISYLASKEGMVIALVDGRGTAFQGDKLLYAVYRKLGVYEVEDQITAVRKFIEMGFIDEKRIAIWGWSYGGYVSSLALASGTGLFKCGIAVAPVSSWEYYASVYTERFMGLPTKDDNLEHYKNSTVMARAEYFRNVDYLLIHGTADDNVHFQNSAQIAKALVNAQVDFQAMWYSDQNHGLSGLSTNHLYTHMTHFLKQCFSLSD
Method: The binding affinity of non-radiolabelled compounds Example 2 (Ga—(S,R,R)—SiFA-FAP-1) and Example 1 ((S,R,R)—SiFA-FAP-1) was assessed in vitro using Grating-Coupled Interferometry (GCI) and waveRAPID kinetics assay (Kartal Ö et al. SLAS Discov. 2021 September; 26(8)-995-1003).
FAP was immobilized on a streptavidin sensor chap in order to assess target binding of compounds. Briefly, the streptavidin chip was conditioned with borate buffer and activated with EDC-NHS solution. Immobilization was achieved via amine coupling to the surface on an amine reactive sensor chip (NeutrAvidin sensor chip) and unused amine reactive groups were deactivated with ethanolamine. FAP was immobilized via via NeutrAvidin capturing of the biotinylated FAP and remaining NeutrAvidin quenched with biocytin. Binding of the compounds to immobilized FAP was assessed using the waveRAPID kinetics assay, using different concentrations of each compound in 1×PBS pH 7.4, 1 mM DTT, 0.005% Tween, 2% DMSO. Binding affinity to FAP was reported as KD.

[2] = tested on: subcutaneous U87-MG tumour; experiment: Biodistribution by γ-counting of excised tissues of U87-MG tumour-bearing mice; format: in vivo; settings: γ-counting 80 minutes post-radiotracer injection; for Biodistribution, Blood / Biodistribution, Bone / Biodistribution, Heart / Biodistribution, Intestine / Biodistribution, Kidneys / Biodistribution, Liver / Biodistribution, Lung / Biodistribution, Muscle / Biodistribution, Pancreas / Biodistribution, Spleen: U87-MG tumor-bearing mice
Method: (§1) The human glioblastoma U87-MG cell line was purchased from ATCC. Cells were cultured in EMEM (supplemented with 2 mM L-glutamine, with 10% fetal bovine serum and 0.1 mM NEAA) at 37° C. in a humidified atmosphere (5% CO2, 95% air).
(§2) All animal experiments were conducted in accordance with the Federation for Laboratory Animal Science Associations guidelines. Healthy female Swiss nude (CrI:NU(Ico)-Foxn1nu) mice (5-6 weeks old) were purchased from Charles River. Mice were irradiated 24-72 hours prior to tumour cell inoculation (whole-body irradiation, 2 Gy/mouse), and U87-MG cells (1×10^7 in 200 μL of RPMI 1640) were then injected subcutaneously into the right shoulder flank.
(§3) Female Swiss nude (CrI:NU(Ico)-Foxn1nu) mice each bearing a subcutaneous U87-MG tumour in the right flank (n=4) were administered with radiolabelled compound of Example 11 ([^18F]—Ga—(S,R,R)—SiFA-FAP-1) (8±1.5 MBq, 100 μL per mouse) intravenously into the tail vein (approximately 3 weeks post inoculation of U87-MG cells). Static PET imaging was performed 60 minutes post-radiotracer administration under anaesthesia (2% isoflurane) using a small animal PET scanner (eXploreVISTA, GE) (n=3). Whole-body PET acquisitions were performed over two bed positions for 20 minutes. Regions of interest were generated, and radiotracer uptake in tissues was calculated as % injected dose per region of interest volume (% ID/cm^3). Immediately post-PET imaging, mice (n=4) were sacrificed and select tissues (blood, tumor, heart, lung, liver, kidneys, spleen, pancreas, intestine, bone, muscle, tail) were harvested and weighed. Radioactivity in the collected samples was determined using γ-counting (Packard). Radiotracer uptake was calculated as % injected dose per gram of tissue (% ID/g).

[3] = tested on: subcutaneous U87-MG tumour; experiment: In vivo PET imaging uptake in U87-MG tumour-bearing mice; settings: 60 minutes post-radiotracer administration; for PET imaging uptake, Muscle: U87-MG tumor-bearing mice; for PET imaging uptake, Muscle / PET imaging uptake, Tumor: i.v.
Method: as §1, §2, §3

CC(C)(C)[Si](F)(c1ccc(C(=O)NC[C@@H](NC(=O)CC[C@H](C(=O)O)N2CCN(CC(=O)O)CCN(CC(=O)O)CCN(CC(=O)O)CC2)C(=O)NCCCOc2ccc3nccc(C(=O)NCC(=O)N4CCC[C@H]4C#N)c3c2)cc1)C(C)(C)C [Example 1, 2,2′,2″-(10-((R)-1-Carboxy-4-(((R)-1-((3-((4-((2-((S)-2-cyanopyrrolidin-1-yl)-2-oxoethyl)carbamoyl)quinolin-6-yl)oxy)propyl)amino)-3-(4-(di-tert-butylfluorosilyl)benzamido)-1-oxopropan-2-yl)amino)-4-oxobutyl)-1,4,7,10-tetraazacyclododecane-1,4,7-triyl) triacetic acid]
Kd [1]: 0.031 nM

CC(C)(C)[Si]([18F])(c1ccc(C(=O)NC[C@@H](NC(=O)CC[C@H](C(=O)O)N2CCN(CC(=O)O)CCN(CC(=O)O)CCN(CC(=O)O)CC2)C(=O)NCCCOc2ccc3nccc(C(=O)NCC(=O)N4CCC[C@H]4C#N)c3c2)cc1)C(C)(C)C [Example 11]
Biodistribution, Blood ([2]; Mean ± SD (n=4)): 2.6 ± 1.1 % ID/g
Biodistribution, Bone ([2]; Mean ± SD (n=4)): 5.1 ± 1.3 % ID/g
Biodistribution, Heart ([2]; Mean ± SD (n=4)): 1.1 ± 0.2 % ID/g
Biodistribution, Intestine ([2]; Mean ± SD (n=4)): 7.3 ± 2.4 % ID/g
Biodistribution, Kidneys ([2]; Mean ± SD (n=4)): 3.0 ± 1.2 % ID/g
Biodistribution, Liver ([2]; Mean ± SD (n=4)): 3.3 ± 0.8 % ID/g
Biodistribution, Lung ([2]; Mean ± SD (n=4)): 1.7 ± 0.1 % ID/g
Biodistribution, Muscle ([2]; Mean ± SD (n=4)): 0.6 ± 0.1 % ID/g
Biodistribution, Pancreas ([2]; Mean ± SD (n=4)): 0.6 ± 0.1 % ID/g
Biodistribution, Spleen ([2]; Mean ± SD (n=4)): 0.7 ± 0.1 % ID/g
Biodistribution, Blood ([2]; Mouse 1): 2.0 % ID/g
Biodistribution, Bone ([2]; Mouse 1): 5.7 % ID/g
Biodistribution, Heart ([2]; Mouse 1): 1.1 % ID/g
Biodistribution, Intestine ([2]; Mouse 1): 5.4 % ID/g
Biodistribution, Kidneys ([2]; Mouse 1): 3.8 % ID/g
Biodistribution, Liver ([2]; Mouse 1): 3.8 % ID/g
Biodistribution, Lung ([2]; Mouse 1): 1.6 % ID/g
Biodistribution, Muscle ([2]; Mouse 1): 0.5 % ID/g
Biodistribution, Pancreas ([2]; Mouse 1): 0.7 % ID/g
Biodistribution, Spleen ([2]; Mouse 1): 0.7 % ID/g
Biodistribution, Blood ([2]; Mouse 2): 1.3 % ID/g
Biodistribution, Bone ([2]; Mouse 2): 6.6 % ID/g
Biodistribution, Heart ([2]; Mouse 2): 0.9 % ID/g
Biodistribution, Intestine ([2]; Mouse 2): 5.3 % ID/g
Biodistribution, Kidneys ([2]; Mouse 2): 1.6 % ID/g
Biodistribution, Liver ([2]; Mouse 2): 2.5 % ID/g
Biodistribution, Lung ([2]; Mouse 2): 1.8 % ID/g
Biodistribution, Muscle ([2]; Mouse 2): 0.8 % ID/g
Biodistribution, Pancreas ([2]; Mouse 2): 0.6 % ID/g
Biodistribution, Spleen ([2]; Mouse 2): 0.6 % ID/g
Biodistribution, Blood ([2]; Mouse 3): 3.5 % ID/g
Biodistribution, Bone ([2]; Mouse 3): 4.0 % ID/g
Biodistribution, Heart ([2]; Mouse 3): 1.3 % ID/g
Biodistribution, Intestine ([2]; Mouse 3): 8.6 % ID/g
Biodistribution, Kidneys ([2]; Mouse 3): 4.2 % ID/g
Biodistribution, Liver ([2]; Mouse 3): 2.7 % ID/g
Biodistribution, Lung ([2]; Mouse 3): 1.7 % ID/g
Biodistribution, Muscle ([2]; Mouse 3): 0.5 % ID/g
Biodistribution, Pancreas ([2]; Mouse 3): 0.6 % ID/g
Biodistribution, Spleen ([2]; Mouse 3): 0.7 % ID/g
Biodistribution, Blood ([2]; Mouse 4): 3.5 % ID/g
Biodistribution, Bone ([2]; Mouse 4): 4.2 % ID/g
Biodistribution, Heart ([2]; Mouse 4): 1.2 % ID/g
Biodistribution, Intestine ([2]; Mouse 4): 10.1 % ID/g
Biodistribution, Kidneys ([2]; Mouse 4): 2.4 % ID/g
Biodistribution, Liver ([2]; Mouse 4): 4.2 % ID/g
Biodistribution, Lung ([2]; Mouse 4): 1.8 % ID/g
Biodistribution, Muscle ([2]; Mouse 4): 0.6 % ID/g
Biodistribution, Pancreas ([2]; Mouse 4): 0.5 % ID/g
Biodistribution, Spleen ([2]; Mouse 4): 0.7 % ID/g
radiotracer uptake higher in tumor compared to muscle (biodistribution analyses) [2]: 8 fold
Biodistribution - Tumor to muscle ratio (T:M) ([2]; Mean ± SD (n=4)): 8.3 ± 2.9
Biodistribution, Tumor ([2]; Mean ± SD (n=4)): 4.8 ± 1.1 % ID/g
Biodistribution - Tumor to muscle ratio (T:M) ([2]; Mouse 1): 11.0
Biodistribution, Tumor ([2]; Mouse 1): 5.8 % ID/g
Biodistribution - Tumor to muscle ratio (T:M) ([2]; Mouse 2): 5.9
Biodistribution, Tumor ([2]; Mouse 2): 4.8 % ID/g
Biodistribution - Tumor to muscle ratio (T:M) ([2]; Mouse 3): 10.6
Biodistribution, Tumor ([2]; Mouse 3): 5.2 % ID/g
Biodistribution - Tumor to muscle ratio (T:M) ([2]; Mouse 4): 5.7
Biodistribution, Tumor ([2]; Mouse 4): 3.2 % ID/g
PET imaging Tumor:Muscle ratio ([3]; Mean ± SD (n=3)): 4.4 ± 0.8
PET imaging Tumor:Muscle ratio ([3]; Mouse 1): 4.6
PET imaging Tumor:Muscle ratio ([3]; Mouse 2): 5
PET imaging Tumor:Muscle ratio ([3]; Mouse 3): 3.5
PET imaging uptake, Muscle ([3]; Mean ± SD (n=3)): 1.0 ± 0.1 % ID/cm^3
PET imaging uptake, Muscle ([3]; Mouse 1): 1 % ID/cm^3
PET imaging uptake, Muscle ([3]; Mouse 2): 0.8 % ID/cm^3
PET imaging uptake, Muscle ([3]; Mouse 3): 1.1 % ID/cm^3
PET imaging uptake, Tumor ([3]; Mean ± SD (n=3)): 4.1 ± 0.3 % ID/cm^3
PET imaging uptake, Tumor ([3]; Mouse 1): 4.4 % ID/cm^3
PET imaging uptake, Tumor ([3]; Mouse 2): 4.2 % ID/cm^3
PET imaging uptake, Tumor ([3]; Mouse 3): 3.8 % ID/cm^3
